# Tests used:
# [1] = tested on: human pancreatic chymotrypsin; test: Specificity assay, human pancreatic chymotrypsin; assay type: biochemical; details: 2 hr enzyme-inhibitor pre-incubation
# Protocol: (§1) The specificities of compounds of the present invention were determined against a variety of serine proteases: human sputum elastase (HS), porcine pancreatic elastase (PPE) and human pancreatic chymotrypsin and one cysteine protease: human liver cathepsin B. In all cases a 96-well plate format protocol using colorimetric p-nitroaniline (pNA) substrate specific for each enzyme was used as described previously (CT 2633 application) with some modifications to the serine protease assays.
# (§2) Each assay included a 2 hr enzyme-inhibitor pre-incubation at RT followed by addition of substrate and hydrolysis to ˜30% conversion as measured on a Spectramax Pro microplate reader. Compound concentrations varied from 100 to 0.4 μM depending on their potency.
# (§3) The final conditions and protocol for the serine protease assays were: • 50 mM Tris(hydroxymethyl)aminomethane hydrochloride (Tris-HCl) pH8, • 0.5M Sodium Sulfate (Na2SO4), 50 mM NaCl, 0.1 mM EDTA, 3% DMSO, • 0.01% Tween-20 with: 133 μM succ-AAA-pNA and 20 nM HS or 8 nM PPE; 100 μM succ-AAPF-pNA and 250 pM Chymotrypsin.
# (§4) The percentage of inhibition was calculated using the formula: [1−((UVinh−UVblank)/(UVctl−UVblank))]×100
# (§5) A non-linear curve fit was applied to the inhibition-concentration data, and the 50% effective concentration (IC50) was calculated by the use of Excel Xl-fit software.
# [2] = biological target: T1, human sputum elastase (HS) (Homo sapiens, UniProt P08246); test: Specificity assay, human sputum elastase; assay type: biochemical; details: 2 hr enzyme-inhibitor pre-incubation
# T1 construct: human sputum elastase (HS); from tissue; host or cells: human sputum (from the enzyme's name only)
# T1 sequence (P08246 30-267): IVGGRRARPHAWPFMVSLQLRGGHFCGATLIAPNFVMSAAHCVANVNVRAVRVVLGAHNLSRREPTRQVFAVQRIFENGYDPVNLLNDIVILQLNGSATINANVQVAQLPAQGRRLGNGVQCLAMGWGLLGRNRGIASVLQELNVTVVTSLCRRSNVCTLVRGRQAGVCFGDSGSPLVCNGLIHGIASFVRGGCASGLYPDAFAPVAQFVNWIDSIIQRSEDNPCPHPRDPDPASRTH
# Protocol: as §1, §2, §3, §4, §5
smiles,measurement,setting,value
"C=CC1C[C@]1(NC(=O)[C@@H]1C[C@@H](Oc2cc(-c3ccccc3)nc3cc(OC)ccc23)CN1C(=O)[C@@H](NC(=O)OC(C)(C)C)C(C)(C)C)C(=O)NS(=O)(=O)c1cccs1 (stereo in doubt) [Compound 1, (1-{4-(7-Methoxy-2-phenylquinolin-4-yloxy)-2-[1-(thiophene-2-sulfonylaminocarbonyl)-2-vinyl-cyclopropylcarbamoyl]-pyrrolidine-1-carbonyl}-2,2-dimethylpropyl)carbamic acid tert-butyl ester]",IC50,[1],> 50 µM
same,IC50,[2],35 µM

# From patent US6869964B2, “Heterocyclicsulfonamide hepatitis C virus inhibitors” (Bristol-Myers Squibb Company, priority 2002, dated 2005)
